Measured values: patent US12673944B2, “Compounds having inhibitory activity against glucosylceramide synthase or pharmaceutically acceptable salt thereof, processes for preparing the same, and pharmaceutical compositions comprising the same” (YUHAN CORPORATION, priority 2019, dated 2026)
Like-named read-outs stand apart in the source and are kept apart here.

Assays:
[1] = target: T1, glucosylceramide synthase (GCS) (Homo sapiens, UniProt Q16739); experiment: GCS enzyme inhibition assay (A549 cell lysate, NBD C6-ceramide, HPLC fluorescence); assay type: biochemical; details: inhibitory activity against GCS, 37° C., 90 minutes
T1 construct: The obtained supernatant was used; host or cells: A549 cells (lysate supernatant after sonication)
T1 sequence (Q16739 1-394): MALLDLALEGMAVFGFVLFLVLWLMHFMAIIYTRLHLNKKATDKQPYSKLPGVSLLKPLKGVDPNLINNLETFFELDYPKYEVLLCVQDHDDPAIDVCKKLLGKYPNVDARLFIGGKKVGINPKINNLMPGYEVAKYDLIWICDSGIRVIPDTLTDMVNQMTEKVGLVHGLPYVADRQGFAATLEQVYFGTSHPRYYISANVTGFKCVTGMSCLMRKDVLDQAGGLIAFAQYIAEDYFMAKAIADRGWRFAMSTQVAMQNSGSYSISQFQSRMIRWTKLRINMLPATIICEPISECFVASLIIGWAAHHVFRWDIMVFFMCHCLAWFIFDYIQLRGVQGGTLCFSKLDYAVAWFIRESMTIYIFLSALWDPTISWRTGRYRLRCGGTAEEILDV
Experimental: Ibiglustat, known as a GCS inhibitor, was used as a control.
After the cells attached to the culture dish were washed with phosphate buffered saline (PBS), the cells were scraped off with a cell scraper and then centrifuged (4000 rpm, 3 min, 4° C.) to collect the cells in a 50 ml tube. The cell pellets were suspended in a lysis buffer (50 mM HEPES, pH 7.3, containing 1× the protease/phosphatase inhibitor cocktail), lysed by sonication, and then the lysate was centrifuged (13000 rpm, 10 min, 4° C.). The obtained supernatant was used for the quantitative analysis of proteins. The amount of proteins was measured using the BCA protein assay kit, using bovine serum albumin as a standard.
Enzymatic reactions were initiated by sequentially adding the following reaction materials to a 96 deep-well plate. Thereafter, the enzymatic reactions were performed at 37° C. for 90 minutes.
The enzymatic reactions were stopped by adding 100 μl of chloroform/methanol (2:1, v/v). After vortexing for 15 seconds, each mixture was centrifuged (4000 rpm, 10 min, 18° C.). The lower layer (50 μl) was transferred to a new 96 deep-well plate and dried with a reduced concentrator.
Data analysis was performed by the following equations. % Area(Sample)=Area(GlcCer)/[Area(Cer)+Area(GlcCer)]×100 % GCS activity=[Area(Sample)−Area(ibiglustat)]/[Area(DMSO)−Area(ibiglustat)]×100

[2] = system: GM1 production in Jurkat cells; experiment: cells; assay type: cell-based

Row | SMILES | IC50 [1] [nM] | IC50 ([2]; Homo sapiens, Jurkat, 72 h) [nM] | IC50 ([2]; read-out: IC50) [nM]
1 | O=C(NC1CCOc2cc(-c3cc4ccccc4o3)ccc21)O[C@@H]1CN2CCC1CC2 (stereo partly drawn) [Example 44, (S)-quinuclidin-3-yl (7-(benzofuran-2-yl)chroman-4-yl)carbamate] | 9.17 | 15.6 | –
2 | CC1(C)COc2cc(-c3ccc(OCC4CC4)nc3)ccc2C1NC(=O)O[C@@H]1CN2CCC1CC2 (stereo partly drawn) [Example 182, (S)-quinuclidin-3-yl (7-(6-(cyclopropylmethoxy)pyridin-3-yl)-3,3-dimethylchroman-4-yl)carbamate] | 0.25 | 0.79 | –
3 | CN(C)c1cccc(-c2ccc3c(c2)OCCC3NC(=O)O[C@@H]2CN3CCC2CC3)c1 (stereo partly drawn) [Example 41, (S)-quinuclidin-3-yl (7-(3-(dimethylamino)phenyl)chroman-4-yl)carbamate] | 0.52 | 0.45 | –
4 | COc1ccccc1-c1ccc2c(c1)OCCC2NC(=O)O[C@@H]1CN2CCC1CC2 (stereo partly drawn) [Example 17, (S)-quinuclidin-3-yl (7-(2-methoxyphenyl)chroman-4-yl)carbamate] | 1.41 | 5.5 | –
5 | CC1(C)COc2cc(-c3cccc(F)c3Cl)ccc2C1NC(=O)O[C@@H]1CN2CCC1CC2 (stereo partly drawn) [Example 237, (S)-quinuclidin-3-yl (7-(2-chloro-3-fluorophenyl)-3,3-dimethylchroman-4-yl)carbamate] | 0.63 | 5.1 | –
6 | COCOc1cccc(-c2ccc3c(c2)OCC(C)(C)C3NC(=O)O[C@@H]2CN3CCC2CC3)c1 (stereo partly drawn) [Example 107, (S)-quinuclidin-3-yl (7-(3-(methoxymethoxy)phenyl)-3,3-dimethylchroman-4-yl)carbamate] | 1.17 | 0.1 | –
7 | CC1(NC(=O)O[C@@H]2CN3CCC2CC3)CCOc2cc(-c3cccc(C(F)(F)F)c3)ccc21 (stereo partly drawn) [Example 305, (S)-quinuclidin-3-yl (4-methyl-7-(3-(trifluoromethyl)phenyl)chroman-4-yl)carbamate] | 0.7 | 5.4 | –
8 | CC(C)(C)c1cccc(-c2ccc3c(c2)OCCC3(C)NC(=O)O[C@@H]2CN3CCC2CC3)c1 (stereo partly drawn) [Example 310, (S)-quinuclidin-3-yl (7-(3-(tert-butyl)phenyl)-4-methylchroman-4-yl)carbamate] | 0.23 | 0.2 | –
9 | O=C(NC1CCOc2cc(-c3cccc4cn[nH]c34)ccc21)O[C@@H]1CN2CCC1CC2 (stereo partly drawn) [Example 49, (S)-quinuclidin-3-yl (7-(1H-indazol-7-yl)chroman-4-yl)carbamate] | 3.8 | 12.3 | –
10 | CC1(C)COc2cc(-c3cccc4ccncc34)ccc2C1NC(=O)O[C@@H]1CN2CCC1CC2 (stereo partly drawn) [Example 160, (S)-quinuclidin-3-yl (7-(isoquinolin-8-yl)-3,3-dimethylchroman-4-yl)carbamate] | 0.52 | 0.54 | –
11 | CC1(C)COc2cc(/C=C/c3ccsc3)ccc2C1NC(=O)O[C@@H]1CN2CCC1CC2 (stereo partly drawn) [Example 271, (S)-quinuclidin-3-yl (3,3-dimethyl-7-((E)-2-(thiophen-3-yl)vinyl)chroman-4-yl)carbamate] | 1.26 | 9 | –
12 | CC1(C)COc2cc(-c3ccc4c(c3)OCCO4)ccc2C1NC(=O)O[C@@H]1CN2CCC1CC2 (stereo partly drawn) [Example 172, (S)-quinuclidin-3-yl (7-(2,3-dihydrobenzo[b][1,4]dioxin-6-yl)-3,3-dimethylchroman-4-yl)carbamate] | 0.37 | 1.92 | –
13 | CC(C)Oc1ccc(-c2cc3c(cc2F)C(NC(=O)O[C@@H]2CN4CCC2CC4)C(C)(C)CO3)cn1 (stereo partly drawn) [Example 348, (S)-quinuclidin-3-yl (6-fluoro-7-(6-isopropoxypyridin-3-yl)-3,3-dimethylchroman-4-yl)carbamate] | 0.24 | 0.5 | –
14 | COc1cccc(OC)c1-c1ccc2c(c1)OCCC2NC(=O)O[C@@H]1CN2CCC1CC2 (stereo partly drawn) [Example 84, (S)-quinuclidin-3-yl (7-(2,6-dimethoxyphenyl)chroman-4-yl)carbamate] | 2.79 | 7.18 | –
15 | COCOc1ccc(-c2ccc3c(c2)OCC(C)(C)C3NC(=O)O[C@@H]2CN3CCC2CC3)cc1 (stereo partly drawn) [Example 108, (S)-quinuclidin-3-yl (7-(4-(methoxymethoxy)phenyl)-3,3-dimethylchroman-4-yl)carbamate] | 0.69 | 0.46 | –
16 | CN(C)c1ccc(-c2ccc3c(c2)OCC(C)(C)C3NC(=O)O[C@@H]2CN3CCC2CC3)cn1 (stereo partly drawn) [Example 251, (S)-quinuclidin-3-yl (7-(6-(dimethylamino)pyridin-3-yl)-3,3-dimethylchroman-4-yl)carbamate] | 1.64 | 17.5 | –
17 | COc1ccc(-c2ccc3c(c2)OCC(C)(C)C3NC(=O)O[C@@H]2CN3CCC2CC3)c(OC)c1 (stereo partly drawn) [Example 125, (S)-quinuclidin-3-yl (7-(2,4-dimethoxyphenyl)-3,3-dimethylchroman-4-yl)carbamate] | 0.86 | 3.85 | –
18 | CC1(C)COc2cc(-c3ccc(OCc4ccccc4)cc3)ccc2C1NC(=O)O[C@@H]1CN2CCC1CC2 (stereo partly drawn) [Example 276, (S)-quinuclidin-3-yl (7-(4-(benzyloxy)phenyl)-3,3-dimethylchroman-4-yl)carbamate] | 0.54 | 1.3 | –
19 | COc1cc2c(cc1-c1ccc(F)cc1)OCC(C)(C)C2NC(=O)O[C@@H]1CN2CCC1CC2 (stereo partly drawn) [Example 350, (S)-quinuclidin-3-yl (7-(4-fluorophenyl)-6-methoxy-3,3-dimethylchroman-4-yl)carbamate] | 0.47 | 7.5 | –
20 | COc1cc2c(cc1-c1ccc(C(C)(C)C)cc1)OCC(C)(C)C2NC(=O)O[C@@H]1CN2CCC1CC2 (stereo partly drawn) [Example 364, (S)-quinuclidin-3-yl (7-(4-(tert-butyl)phenyl)-6-methoxy-3,3-dimethylchroman-4-yl)carbamate] | 0.43 | 2 | –
21 | CC1(C)COc2cc(-c3cccc4ncccc34)ccc2C1NC(=O)O[C@@H]1CN2CCC1CC2 (stereo partly drawn) [Example 219, (S)-quinuclidin-3-yl (3,3-dimethyl-7-(quinolin-5-yl)chroman-4-yl)carbamate] | 2.26 | 7.58 | –
22 | COc1ncc(-c2ccc3c(c2)OCCC3NC(=O)O[C@@H]2CN3CCC2CC3)cc1Cl (stereo partly drawn) [Example 80, (S)-quinuclidin-3-yl (7-(5-chloro-6-methoxypyridin-3-yl)chroman-4-yl)carbamate] | 5.75 | 44.2 | –
23 | COc1cc(-c2ccc3c(c2)OCC(C)(C)C3NC(=O)O[C@@H]2CN3CCC2CC3)ccn1 (stereo partly drawn) [Example 203, (S)-quinuclidin-3-yl (7-(2-methoxypyridin-4-yl)-3,3-dimethylchroman-4-yl)carbamate] | 0.72 | 8.03 | –
24 | CC1(C)COc2cc(-c3cccc4cccnc34)ccc2C1NC(=O)O[C@@H]1CN2CCC1CC2 (stereo partly drawn) [Example 165, (S)-quinuclidin-3-yl (3,3-dimethyl-7-(quinolin-8-yl)chroman-4-yl)carbamate] | 0.82 | 0.66 | –
25 | CC1(C)CC(NC(=O)O[C@@H]2CN3CCC2CC3)c2cc(-c3cccc(F)c3)ccc2O1 (stereo partly drawn) [Example 294, (S)-quinuclidin-3-yl (6-(3-fluorophenyl)-2,2-dimethylchroman-4-yl)carbamate] | 145 | – | –
26 | CC1(C)COc2cc(-c3ccc(N4CCOCC4)c(F)c3)ccc2C1NC(=O)O[C@@H]1CN2CCC1CC2 (stereo partly drawn) [Example 204, (S)-quinuclidin-3-yl (7-(3-fluoro-4-morpholinophenyl)-3,3-dimethylchroman-4-yl)carbamate] | – | – | 0.31
